Experimental data: patent publication US20040001818A1, “Methods of inhibiting angiogenesis using NADPH oxidase inhibitors” (priority 2000, published 2004)
Where two headings read alike, the source gives them in different places.

What was measured:
[1] = tested on: MnSOD mRNA; assay: Northern blot of MnSOD mRNA in HCAECs; type: cell-based, human
Method: Cell culture. Human coronary artery endothelial cells (HCAECs) (Clonetics Corporation, San Diego, Calif., USA) and human pulmonary artery endothelial cells (HPAECs) were grown in Endothelial Growth Medium-2-MV (EGM-2-MV) BulletKit (Clonetics Corporation, San Diego, Calif., USA). At 80-90% confluence, the cells were serum-starved in DMEM containing 0.5% FBS for 24 hours and subsequently treated with VEGF-supplemented medium for the times indicated. Human recombinant VEGF was purchased from PeproTech, Inc. (Rocky Hill, N.J., USA). […] In other studies, the serum-starved cells were pretreated with the MEK inhibitor PD98059 at a final concentration of 50 μM or a specific PKC inhibitor bisindolylmaleimide I (BIM; CalBiochem, San Diego, Calif., USA) at a final concentration of 5 μM for 30 minutes prior to addition of growth factors. An equal amount of DMSO was added to the control plates. Northern blot analyses. Ten micrograms total RNA was loaded on a 0.7% formaldehyde-containing agarose gel. The RNA was transferred to nylon membrane, covalently cross-linked with UV radiation, prehybridized for 6 hours, and hybridized for 18 hours at 42° C. with a [^32P]dCTP-labeled cDNA probe containing MnSOD or eNOS cDNA sequence. The membranes were subsequently stripped and probed with a radiolabeled 18S-ribosome probe. For actinomycin D experiments, HCAEC cells were pretreated with 10 μg/ml actinomycin D (Sigma Chemical Company, St. Louis, Mo., USA) for 30 minutes before addition of VEGF and were harvested for total RNA one hour later.
To determine whether VEGF induced expression of MnSOD in primary endothelial cell cultures, HCAECs and HPAECs were serum starved for 24 hours, treated with 40 ng/ml VEGF for 0, 0.5, 1, 2, 4, 12 and 24 hours, and then harvested for total RNA. Northern blots were performed and probed for human MnSOD. […] The membranes were then stripped and reprobed for eNOS.
To determine whether the response of MnSOD to VEGF was mediated by ROS, HCAECs were serum starved and then treated with VEGF in the absence or presence of inhibitors of NADPH oxidase (DPI, apocynin), xanthine oxidase (allopurinol) and nitric oxide synthase (L-NAME).

[2] = tested on: ROS; assay: ROS generation: DCF oxidation by flow cytometry in DCFDA-labeled HCAECs; type: cell-based, human; conditions: relative to basal rate of control cells
Method: (§1) Western blot analyses. Whole cell protein extracts were prepared from serum-starved HCAECs and HPAECs one hour following addition of growth factor-supplemented or mock-treated media. Cells were washed twice with cold phosphate-buffered saline, harvested with a cell scraper, and lysed in ice-cold lysis buffer containing 20 mM HEPES, pH 7.5, 150 mM NaCl, 1% NP-40, 0.1% SDS, 1 mM EDTA, 1 mM DTT, 0.5 mM phenylmethylsulfonyl fluoride (PMSF), and the protease inhibitor cocktail (Boehringer Mannheim, Mannheim, Germany) for one hour. The resulting lysates were centrifuged at 10,000× g for 20 minutes and the supernatants were saved as whole cell protein extracts. Forty micrograms of protein were separated by 10% SDS-PAGE and electrotransferred to nitrocellulose membranes. Membranes were blocked with 5% nonfat dry milk in Tris-buffered saline with 0.1% Tween 20 for one hour at room temperature. The blot was incubated with primary rabbit polyclonal anti-MnSOD IgG (1:1000 dilution) (Santa Cruz Biotechnology Inc., Santa Cruz, Calif., USA) overnight at 4° C., followed by secondary antibody goat-anti-rabbit horseradish peroxidase conjugate (1:1000 dilution) (Pierce, Rockford, Ill., USA). The blot was washed extensively between each incubation step. Peroxidase activity was visualized with an enhanced chemiluminescense substrate system (Amersham, Arlington Heights, Ill., USA). Membranes were stripped and probed for eNOS and β-actin. Flow cytometry. Endothelial cells were labeled with DCFDA and oxidation of DCF was measured by flow cytometry.
To test whether VEGF increases ROS production in endothelial cells, HCAECs were labeled with […] DCFDA and oxidation of DCF was measured by flow cytometry. […] PMS is known to induce free oxygen radicals.

[3] = tested on: MnSOD mRNA; assay: Northern blot of MnSOD mRNA in organs of mice after intraperitoneal VEGF; type: in vivo, mouse; conditions: four hours after intraperitoneal injection of 20 μg VEGF
Method: Mice and injection of growth factors. Female FVB mice (4 to 8 weeks old; 18 to 22 grams) were obtained from Taconic (Germantown, N.Y., USA). All protocols were approved by the Institutional Animal Care and Use Committee of the Beth Israel Deaconess Medical Center. Mice were injected intraperitoneally with VEGF (1.0 μg/g body weight).
Injection of VEGF into the intraperitoneal cavity of mice results in widespread distribution of the growth factor and phosphorylation of the VEGF receptor, Flk-1. In this study, therefore, organs were removed from mice four hours following intraperitoneal injection of either normal saline or 20 μg VEGF and harvested for total RNA. Northern blot analyses were then carried out to determine whether VEGF induced the expression of a panel of genes, including MnSOD.

[4] = tested on: MnSOD mRNA; conditions: HPAEC, 40 ng/ml VEGF
Method: (§2) Cell culture. Human coronary artery endothelial cells (HCAECs) (Clonetics Corporation, San Diego, Calif., USA) and human pulmonary artery endothelial cells (HPAECs) were grown in Endothelial Growth Medium-2-MV (EGM-2-MV) BulletKit (Clonetics Corporation, San Diego, Calif., USA). At 80-90% confluence, the cells were serum-starved in DMEM containing 0.5% FBS for 24 hours and subsequently treated with VEGF-supplemented medium for the times indicated. Human recombinant VEGF was purchased from PeproTech, Inc. (Rocky Hill, N.J., USA). In inhibition studies, the serum-starved HCAEC cells were preincubated with diphenyleneiodonium (DPI), apocynin, allopurinol, L-NAME, or anthrone for one hour and then incubated in the absence or presence of 40 ng/ml VEGF for another hour. In other studies, the serum-starved cells were pretreated with the MEK inhibitor PD98059 at a final concentration of 50 μM or a specific PKC inhibitor bisindolylmaleimide I (BIM; CalBiochem, San Diego, Calif., USA) at a final concentration of 5 μM for 30 minutes prior to addition of growth factors. An equal amount of DMSO was added to the control plates. Northern blot analyses. Ten micrograms total RNA was loaded on a 0.7% formaldehyde-containing agarose gel. The RNA was transferred to nylon membrane, covalently cross-linked with UV radiation, prehybridized for 6 hours, and hybridized for 18 hours at 42° C. with a [^32P]dCTP-labeled cDNA probe containing MnSOD or eNOS cDNA sequence. The membranes were subsequently stripped and probed with a radiolabeled 18S-ribosome probe. For actinomycin D experiments, HCAEC cells were pretreated with 10 μg/ml actinomycin D (Sigma Chemical Company, St. Louis, Mo., USA) for 30 minutes before addition of VEGF and were harvested for total RNA one hour later.
(§3) To determine whether VEGF induced expression of MnSOD in primary endothelial cell cultures, HCAECs and HPAECs were serum starved for 24 hours, treated with 40 ng/ml VEGF for 0, 0.5, 1, 2, 4, 12 and 24 hours, and then harvested for total RNA. Northern blots were performed and probed for human MnSOD. […]

[5] = tested on: eNOS mRNA; conditions: either cell type (HCAEC, HPAEC), 40 ng/ml VEGF
Method: as §2, §3

[6] = tested on: MnSOD protein; conditions: 40 ng/ml VEGF; for MnSOD protein: 0.5-24 hours
Method: as §1
Serum-starved HCAECs and HPAECs were treated with 40 ng/ml VEGF for 0.5-24 hours and then harvested for total protein.

[7] = tested on: eNOS protein; conditions: 40 ng/ml VEGF, any time point 0.5-24 hours
Method: as §1, with “Peroxidase activity was visualized with an enhanced chemiluminescense substrate system (Amersham, Arlington Heights, Ill., USA). Membranes were stripped and probed for eNOS and β-actin. Flow cytometry.” left out

Substance: VEGF
- time of peak MnSOD mRNA levels ([1]; HCAEC, 40 ng/ml VEGF): 4 h
- MnSOD mRNA levels ([1]; HCAEC, 40 ng/ml VEGF, between one hour and 24 hours): increased
- VEGF concentration of maximal MnSOD induction ([1]; dose-response 0, 1, 5, 10, 100 ng/ml VEGF): 100 ng/mL
- DCF oxidation (ROS production) [2]: no change
- MnSOD mRNA levels in other tissues (lung, brain, liver, spleen, skeletal muscle) [3]: not
- MnSOD mRNA levels in the heart and the kidney [3]: increased
- time of peak MnSOD mRNA levels [4]: 4 h
- MnSOD mRNA levels ([4]; between 2 and 24 hours): increased
- eNOS mRNA induction [5]: not induced
- time of maximal MnSOD protein levels ([6]; HCAECs): 12 to 24 h
- MnSOD protein ([6]; HCAECs): significantly induced
- time of maximal MnSOD protein levels ([6]; HPAECs): 12 to 24 h
- MnSOD protein ([6]; HPAECs): significantly induced
- eNOS protein levels [7]: did not increase
